Data from PMC10641818, “Development of First-in-Class Dual Sirt2/HDAC6 Inhibitors as Molecular Tools for Dual Inhibition of Tubulin Deacetylation” (Journal of Medicinal Chemistry, 2023).

Key:
[1] = target: T1, Sirt2 (Homo sapiens, UniProt Q8IXJ6); assay: Sirt2 in vitro deacetylation assay (ZMAL, trypsin-based fluorescence); format: biochemical; conditions: deacetylation, mean ± SD
T1 construct: the respective sirtuin (Sirt1_134–747, Sirt2_56–356, or Sirt3_118–395) was mixed with; made in house; host or cells: Escherichia coli BL21 Star (DE3)
T1 sequence (Q8IXJ6 56-356): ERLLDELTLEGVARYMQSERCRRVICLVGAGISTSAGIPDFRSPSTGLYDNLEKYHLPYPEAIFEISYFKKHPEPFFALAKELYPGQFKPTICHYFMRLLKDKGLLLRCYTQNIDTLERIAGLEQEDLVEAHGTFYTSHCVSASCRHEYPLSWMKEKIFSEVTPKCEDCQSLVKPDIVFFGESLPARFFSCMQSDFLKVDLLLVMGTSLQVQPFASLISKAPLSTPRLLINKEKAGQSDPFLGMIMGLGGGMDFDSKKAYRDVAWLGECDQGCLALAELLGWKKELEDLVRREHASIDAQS

[2] = test system: α-tubulin acetylation; assay: Immunofluorescence microscopy of α-tubulin acetylation in PC-3M-luc cells; format: cell-based; conditions: 20 μM, 5 h
Protocol: The detection of acetylation levels of α-tubulin by immunofluorescence was performed as previously described.[47] In brief, PC-3M-luc cells (25 000 cells per well) were plated in Ibidi 8-well slides (Ibidi, catalogue no. 80826) and incubated overnight at 37 °C, 5% CO2. Next, cells were treated with 20 μM of inhibitor. After 5 h, the medium was removed and the cells washed with PBS and fixed with 4% PFA for 8–10 min at ambient temperature. Cells were rinsed three times with PBS and lysed with extraction buffer (PBS, 0.1% Triton X-100) for 3–5 min at ambient temperature. After another washing step with PBS, blocking buffer (PBS, 0.1% Triton, 5% FCS) was added for at least 10 min before incubating with monoclonal acetylated α-tubulin antibody (1:500, Sigma-Aldrich, catalogue no. T6793) in blocking buffer overnight at 4 °C. […] The cells were rinsed two times with blocking buffer and once with PBS and DAPI in mounting medium ([…] HardSet Antifade Mounting Medium with DAPI, no. H-1500-10) diluted 1:50 in PBS was added and it was incubated for 10 min in the dark. Confocal microscopy was performed with a Leica SP8 confocal microscope equipped with a 40×/1.40 oil objective (Leica Microsystems) keeping the laser settings of the images constant to allow direct comparison of signal intensities between images.

[3] = test system: HGC27 gastric carcinoma cells; assay: Cell viability assay (MTS) HGC27; format: cell-based; conditions: Homo sapiens, HGC-27, 72 h
In short: (§1)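 HGC27 and PC-3M-luc cells (2000/well) were read by MTS after compound in 0.5% DMSO. W1 (10^4/well) and MCF-7 (2 × 10^3/well) were given half-log dilutions for 72 h, then MTT for 1 h, with absorbance at 570 nm minus 690 nm. Viability was fitted to a four-parameter logistic curve.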

[4] = test system: W1 ovarian cancer cells; assay: Cell viability assay (MTT) W1; format: cell-based; conditions: 72 h
In short: as §1

[5] = target: T2, HDAC6 (Homo sapiens, UniProt Q9UBN7); assay: HDAC6 in vitro deacetylation assay (ZMAL); format: biochemical; parameters: purchased BPS Bioscience 50006
T2 sequence (Q9UBN7 1-1215): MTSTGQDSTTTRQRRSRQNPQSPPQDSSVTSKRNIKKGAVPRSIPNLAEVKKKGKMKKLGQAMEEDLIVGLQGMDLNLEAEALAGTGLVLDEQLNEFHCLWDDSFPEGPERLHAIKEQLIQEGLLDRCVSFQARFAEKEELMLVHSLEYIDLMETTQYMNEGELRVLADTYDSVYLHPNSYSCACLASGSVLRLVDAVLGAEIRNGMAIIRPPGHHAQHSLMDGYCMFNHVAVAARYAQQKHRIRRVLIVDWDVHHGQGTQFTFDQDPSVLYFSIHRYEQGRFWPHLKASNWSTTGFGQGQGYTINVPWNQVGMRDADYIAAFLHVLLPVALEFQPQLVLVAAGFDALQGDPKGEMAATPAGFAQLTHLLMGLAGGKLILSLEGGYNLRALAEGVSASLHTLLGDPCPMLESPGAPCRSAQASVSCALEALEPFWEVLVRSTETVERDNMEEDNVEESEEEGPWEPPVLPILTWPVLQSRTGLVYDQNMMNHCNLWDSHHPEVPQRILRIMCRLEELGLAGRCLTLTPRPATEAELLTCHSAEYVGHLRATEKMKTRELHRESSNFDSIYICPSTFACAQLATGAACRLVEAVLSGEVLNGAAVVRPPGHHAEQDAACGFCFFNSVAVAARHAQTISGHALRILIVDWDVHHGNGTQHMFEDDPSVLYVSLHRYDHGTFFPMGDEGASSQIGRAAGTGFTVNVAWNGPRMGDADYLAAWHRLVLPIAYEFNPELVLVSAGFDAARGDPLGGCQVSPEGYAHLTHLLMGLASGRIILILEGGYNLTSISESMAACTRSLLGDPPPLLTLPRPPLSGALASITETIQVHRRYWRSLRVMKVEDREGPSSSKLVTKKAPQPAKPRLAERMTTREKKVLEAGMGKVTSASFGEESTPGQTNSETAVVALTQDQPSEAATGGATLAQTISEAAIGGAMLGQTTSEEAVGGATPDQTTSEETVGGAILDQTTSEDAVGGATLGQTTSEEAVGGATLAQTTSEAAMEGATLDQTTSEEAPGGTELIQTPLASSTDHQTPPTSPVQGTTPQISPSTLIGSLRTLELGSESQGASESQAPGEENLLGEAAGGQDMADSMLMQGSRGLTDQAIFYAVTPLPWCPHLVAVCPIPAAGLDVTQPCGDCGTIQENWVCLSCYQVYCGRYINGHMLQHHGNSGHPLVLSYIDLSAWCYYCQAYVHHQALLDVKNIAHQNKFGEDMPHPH

IC50 [1] [nM] | EC50 ([3]; MTS, mean ± SD) [nM] | EC50 ([4]; MTT, mean ± SD) [nM] | IC50 ([5]; deacetylation, mean ± SD) [nM] | inhibition at 10 µM ([5]; @ 10 μM, read-out: HDAC6 percentual inhibition) [%] | SMILES | α-tubulin acetylation (immunofluorescence) [2] | inhibition at 50 µM ([3]; @ 50 μM, read-out: HGC27 percentual inhibition) [%] | inhibition at 100 µM ([4]; @ 0.1 mM, read-out: W1 percentual inhibition) [%]
320 ± 110 | 12900 ± 900 | 19200 ± 1300 | 43 ± 3 | – | CCCCN(Cc1ccc(C(=O)NO)cc1)C(=O)CCCCn1cc(COc2cccc(Cc3cnc(NC(=O)CSc4nc(C)cc(C)n4)s3)c2)nn1 [Compound 33, 4-((N-Butyl-5-(4-((3-((2-(2-((4,6-dimethylpyrimidin-2-yl)thio)acetamido)thiazol-5-yl)methyl)phenoxy)methyl)-1H-1,2,3-triazol-1-yl)pentanamido)methyl)-N-hydroxybenzamide] | the increase in tubulin hyperacetylation was especially pronounced | – | –
220 ± 10 | – | – | – | 18 | Cc1cc(C)nc(SCC(=O)Nc2ncc(Cc3cccc(OCc4cn(Cc5ccccc5)nn4)c3)s2)n1 [Compound 4, SirReal1.1, reference compound] | very minor | 39 | 3
